Laboratory results as given in paper PMC7253423, “Quassinoid analogs with enhanced efficacy for treatment of hematologic malignancies target the PI3Kγ isoform” (Communications Biology, 2020).
Like-named read-outs stand apart in the source and are kept apart here.

What was measured:
[1] = Cytotoxicity, cell viability assay in normal cells; type: cell-based; conditions: human, fraction of 0 μM control; for viability at 0.000244141 μM: Con. 0.000244141 μM; for viability at 0.00390625 μM: Con. 0.00390625 μM; for viability at 0.015625 μM: Con. 0.015625 μM; for viability at 0.0625 μM: Con. 0.0625 μM; for viability at 1 μM: Con. 1 μM; for viability at […]: Con. […]
Text: (§1) Human peripheral blood mononuclear cells (PBMCs), normal T-cells and B-cells were provided by the University of Pennsylvania Human Immunology Core (HIC), and Patient-derived xenografts (PDXs) were obtained from Fox Chase Cancer Center (FCCC). These samples were from different unidentified and healthy donors with written, informed consent. All the procedures were approved by the Institutional Review Board (IRB) and conducted according to the declarations of Helsinki protocols.
(§2) 5000 cells as indicated were cultured in 96-well plate with 100 μl of media. […] After treatment, the cells were incubated with 100 μl buffer for 10 min at room temperature following the instructions of CellTiter-Glo kit (Promega, Madison, WI). Luminescence was detected using a multi-mode reader Cytation 5 (BioTek, Winooski, VT). […] Two independent experiments done in duplicates were performed.

Raji cells = assay: Cell viability assay (CellTiter-Glo luminescence); type: cell-based, human; conditions: Homo sapiens; for viability at 0.00244141 µM: read-out: relative cell viability (Fig 6f), replicates, Raji, Con. 0.00244141 μM, fraction of 0 μM control; for viability at 0.0390625 µM: read-out: relative cell viability (Fig 6f), replicates, Raji, Con. 0.0390625 μM, fraction of 0 μM control; for viability at 0.15625 µM: read-out: relative cell viability (Fig 6f), replicates, Raji, Con. 0.15625 μM, fraction of 0 μM control; for viability at 0.625 µM: read-out: relative cell viability (Fig 6f), replicates, Raji, Con. 0.625 μM, fraction of 0 μM control; for viability at 10 µM: read-out: relative cell viability (Fig 6f), replicates, Raji, Con. 10 μM, fraction of 0 μM control; for viability at […]: read-out: relative cell viability (Fig 6f), replicates, Raji, Con. […], fraction of 0 μM control
Description: as §2

SU-DHL-4 cells = assay: Cell viability assay (CellTiter-Glo luminescence); type: cell-based, human; conditions: Homo sapiens, SU-DHL-4, 144 h; for viability at 0.00244141 µM: read-out: relative cell viability (Fig 6d), replicates, SU-DHL-4, Con. 0.00244141 μM, fraction of 0 μM control; for viability at 0.0390625 µM: read-out: relative cell viability (Fig 6d), replicates, SU-DHL-4, Con. 0.0390625 μM, fraction of 0 μM control; for viability at 0.15625 µM: read-out: relative cell viability (Fig 6d), replicates, SU-DHL-4, Con. 0.15625 μM, fraction of 0 μM control; for viability at 0.625 µM: read-out: relative cell viability (Fig 6d), replicates, SU-DHL-4, Con. 0.625 μM, fraction of 0 μM control; for viability at 10 µM: read-out: relative cell viability (Fig 6d), replicates, SU-DHL-4, Con. 10 μM, fraction of 0 μM control
Description: as §2

[2] = Cytotoxicity, cell viability assay in normal cells; type: cell-based, human; conditions: human, PBMC, fraction of 0 μM control, read-out: relative cell viability (Fig 6a), replicates; for viability at 0.000244141 μM: Con. 0.000244141 μM; for viability at 0.00390625 μM: Con. 0.00390625 μM; for viability at 0.015625 μM: Con. 0.015625 μM; for viability at 0.0625 μM: Con. 0.0625 μM; for viability at 1 μM: Con. 1 μM
Text: as §1, §2

MOLM14 cells = assay: Cell viability assay (CellTiter-Glo luminescence); type: cell-based; conditions: Homo sapiens; for viability at 0.0390625 µM: MOLM-14, read-out: relative cell viability (Fig 6e), replicates, MOLM14, Con. 0.0390625 μM, fraction of 0 μM control; for viability at 0.15625 µM: MOLM-14, read-out: relative cell viability (Fig 6e), replicates, MOLM14, Con. 0.15625 μM, fraction of 0 μM control; for viability at 0.625 µM: MOLM-14, read-out: relative cell viability (Fig 6e), replicates, MOLM14, Con. 0.625 μM, fraction of 0 μM control; for viability at 10 µM: MOLM-14, read-out: relative cell viability (Fig 6e), replicates, MOLM14, Con. 10 μM, fraction of 0 μM control; for viability at […]: MOLM-14, read-out: relative cell viability (Fig 6e), replicates, MOLM14, Con. […], fraction of 0 μM control; for viability at 0.00244141 µM: MOLM-14, read-out: relative cell viability (Fig 6e), replicates, MOLM14, Con. 0.00244141 μM, fraction of 0 μM control
Description: as §2

[3] = normal B-cells from healthy donors, B-cells, read-out: relative cell viability (Fig 6c), replicates
[4] = normal T-cells from healthy donors, T-cells, read-out: relative cell viability (Fig 6b), replicates

SMILES	viability at 0.000244141 μM [1, 3]	viability at 0.00390625 μM [1, 3]	viability at 0.015625 μM [1, 3]	viability at 0.0625 μM [1, 3]	viability at 1 μM [1, 3]	viability at 0.000244141 μM [1, 4]	viability at 0.00390625 μM [1, 4]	viability at 0.015625 μM [1, 4]	viability at 0.0625 μM [1, 4]	viability at 1 μM [1, 4]	viability at 0.00244141 µM (Raji cells)	viability at 0.15625 µM (Raji cells)	viability at 0.15625 µM (SU-DHL-4 cells)	viability at 0.625 µM (SU-DHL-4 cells)	viability at 10 µM (SU-DHL-4 cells)	viability at 0.00390625 μM [2]	viability at 0.015625 μM [2]	viability at 0.0625 μM [2]	viability at 1 μM [2]	viability at 0.625 µM (MOLM14 cells)	further results
C[C@H](Nc1ncnc2nc[nH]c12)c1cc2cccc(Cl)c2c(=O)n1-c1ccccc1 [Duvelisib]	94.3%	103%	80.4%	104%	72.7%	108%	100%	99.3%	102%	93.2%	94.9%	94.1%	85.8%	75.1%	27.4%	94.6%	101%	92.6%	80.3%	125%	viability at […] [1, 4]: 103%; viability at 0.0390625 µM (Raji cells): 112%; viability at 0.625 µM (Raji cells): 99.1%; viability at 10 µM (Raji cells): 64.1%; viability at […] (Raji cells): 104%; viability at 0.00244141 µM (SU-DHL-4 cells): 103%; viability at 0.0390625 µM (SU-DHL-4 cells): 99.8%; viability at 0.000244141 μM [2]: 103%; viability at 0.0390625 µM (MOLM14 cells): 122%; viability at 0.15625 µM (MOLM14 cells): 109%; viability at 10 µM (MOLM14 cells): 24.1%; viability at […] (MOLM14 cells): 106%
COc1c(OCCCN2CCOCC2)ccc2c1N=C(NC(=O)c1cnc(N)nc1)N1CCN=C21 [Copanlisib]	90.1%	95.7%	91.4%	79.9%	52.6%	95.3%	102%	94.4%	107%	79.9%	94.7%	102%	42.6%	12.3%	5.12%	106%	92.8%	73%	61.4%	18.1%	viability at 0.0390625 µM (Raji cells): 91.7%; viability at 0.625 µM (Raji cells): 67.9%; viability at 10 µM (Raji cells): 7.75%; viability at 0.00244141 µM (SU-DHL-4 cells): 122%; viability at 0.0390625 µM (SU-DHL-4 cells): 69%; viability at 0.000244141 μM [2]: 104%; viability at 0.00244141 µM (MOLM14 cells): 89.1%; viability at 0.0390625 µM (MOLM14 cells): 59%; viability at 0.15625 µM (MOLM14 cells): 58.4%; viability at 10 µM (MOLM14 cells): 4.25%
CC[C@H](Nc1ncnc2[nH]cnc12)c1nc2cccc(F)c2c(=O)n1-c1ccccc1 [Idelalisib]	101%	103%	103%		81.2%	105%	102%	98.9%		98.7%	111%	114%	99.8%	87.1%	33.1%	99.7%	111%	83.8%	89.1%	113%	viability at 0.0390625 µM (SU-DHL-4 cells): 96.2%; viability at […] (MOLM14 cells): 120%
C[C@H](NC(=O)c1c(N)nn2cccnc12)c1cc2cccc(C#Cc3cnn(C)c3)c2c(=O)n1-c1ccccc1 [IPI-549]	107%		118%	105%	93.7%	108%	107%	109%	83.1%	115%	95.4%	113%	115%	94.2%	30.8%	98.8%	104%	102%	99.1%	93.4%	viability at […] [1, 3]: 122%; viability at […] [1, 4]: 109%; viability at 0.0390625 µM (Raji cells): 108%; viability at 0.625 µM (Raji cells): 122%; viability at 10 µM (Raji cells): 55%; viability at […] (Raji cells): 98.4%; viability at 0.00244141 µM (SU-DHL-4 cells): 94.9%; viability at 0.00244141 µM (MOLM14 cells): 121%; viability at 10 µM (MOLM14 cells): 23.9%; viability at […] (MOLM14 cells): 119%
